From ChEMBL document CHEMBL5725325, “Combination of kinase inhibitors and uses thereof” (2017)

Assays:
[1] = biological target: Phosphatidylinositol 4,5-bisphosphate 3-kinase catalytic subunit gamma isoform (Homo sapiens, UniProt P48736); experiment: (§1) PI 3-Kinase HTRF Assay: Briefly, the assay is a time resolved FRET assay that indirectly measures PIP3 product formed by the activity of a PI3-K. The kinase reaction is performed in a microtitre plate (e.g., a 384 well microtitre plate). The total reaction volume is approximately 20 ul per well. In the first step, each well receives 2 ul of test compound in 20% dimethylsulphoxide resulting in a 2% DMSO final concentration. Next, approximately 14.5 ul of a kinase/PIP2 mixture (diluted in 1x reaction buffer) is added per well for a final concentration of 0.25-0.3 ug/ml kinase and 10 uM PIP2. The plate is sealed and incubated for 15 minutes at room temperature. To start the reaction, 3.5 ul of ATP (diluted in 1x reaction buffer) is added per well for a final concentration of 10 uM ATP. The plate is sealed and incubated for 1 hour at room temperature. The reaction is stopped by adding 5 ul of Stop Solution per well and then 5 ul of Detection Mix is added per well. The plate is sealed, incubated for 1 hour at room temperature, and then read on an appropriate plate reader.
[2] = as §1
[3] = biological target: Phosphatidylinositol 3-kinase regulatory subunit beta (Homo sapiens, UniProt O00459); experiment: as §1
[4] = biological target: T1, Phosphatidylinositol 4,5-bisphosphate 3-kinase catalytic subunit delta isoform (Homo sapiens, UniProt O00329); experiment: as §1
T1 sequence (O00329 whole entry): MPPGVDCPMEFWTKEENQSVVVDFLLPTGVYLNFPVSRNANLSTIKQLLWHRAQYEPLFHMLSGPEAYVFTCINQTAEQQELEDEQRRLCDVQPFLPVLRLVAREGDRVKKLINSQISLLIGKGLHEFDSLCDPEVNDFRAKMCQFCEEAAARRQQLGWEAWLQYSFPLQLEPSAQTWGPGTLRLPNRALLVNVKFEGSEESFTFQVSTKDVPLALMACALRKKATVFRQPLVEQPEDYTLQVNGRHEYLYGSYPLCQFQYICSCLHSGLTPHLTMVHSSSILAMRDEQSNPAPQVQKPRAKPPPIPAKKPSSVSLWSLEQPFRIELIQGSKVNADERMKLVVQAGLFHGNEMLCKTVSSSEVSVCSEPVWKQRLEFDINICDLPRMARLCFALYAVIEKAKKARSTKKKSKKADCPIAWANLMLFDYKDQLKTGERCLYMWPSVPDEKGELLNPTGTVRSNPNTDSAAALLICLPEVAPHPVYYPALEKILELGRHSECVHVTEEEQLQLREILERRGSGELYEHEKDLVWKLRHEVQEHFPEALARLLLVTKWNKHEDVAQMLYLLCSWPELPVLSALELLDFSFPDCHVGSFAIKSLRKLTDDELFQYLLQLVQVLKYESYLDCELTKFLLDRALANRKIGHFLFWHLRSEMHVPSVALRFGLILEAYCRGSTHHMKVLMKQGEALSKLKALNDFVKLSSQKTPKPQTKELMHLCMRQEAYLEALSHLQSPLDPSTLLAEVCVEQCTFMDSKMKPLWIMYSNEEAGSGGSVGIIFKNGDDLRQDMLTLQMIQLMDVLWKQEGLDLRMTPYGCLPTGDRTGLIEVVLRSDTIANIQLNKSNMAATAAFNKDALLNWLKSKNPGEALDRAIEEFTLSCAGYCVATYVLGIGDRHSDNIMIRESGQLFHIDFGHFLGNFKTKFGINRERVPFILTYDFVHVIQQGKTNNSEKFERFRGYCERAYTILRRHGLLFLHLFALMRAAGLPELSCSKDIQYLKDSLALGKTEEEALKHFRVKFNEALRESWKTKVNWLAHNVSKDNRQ

Sequence of Phosphatidylinositol 3-kinase regulatory subunit beta (O00459 whole entry, canonical isoform): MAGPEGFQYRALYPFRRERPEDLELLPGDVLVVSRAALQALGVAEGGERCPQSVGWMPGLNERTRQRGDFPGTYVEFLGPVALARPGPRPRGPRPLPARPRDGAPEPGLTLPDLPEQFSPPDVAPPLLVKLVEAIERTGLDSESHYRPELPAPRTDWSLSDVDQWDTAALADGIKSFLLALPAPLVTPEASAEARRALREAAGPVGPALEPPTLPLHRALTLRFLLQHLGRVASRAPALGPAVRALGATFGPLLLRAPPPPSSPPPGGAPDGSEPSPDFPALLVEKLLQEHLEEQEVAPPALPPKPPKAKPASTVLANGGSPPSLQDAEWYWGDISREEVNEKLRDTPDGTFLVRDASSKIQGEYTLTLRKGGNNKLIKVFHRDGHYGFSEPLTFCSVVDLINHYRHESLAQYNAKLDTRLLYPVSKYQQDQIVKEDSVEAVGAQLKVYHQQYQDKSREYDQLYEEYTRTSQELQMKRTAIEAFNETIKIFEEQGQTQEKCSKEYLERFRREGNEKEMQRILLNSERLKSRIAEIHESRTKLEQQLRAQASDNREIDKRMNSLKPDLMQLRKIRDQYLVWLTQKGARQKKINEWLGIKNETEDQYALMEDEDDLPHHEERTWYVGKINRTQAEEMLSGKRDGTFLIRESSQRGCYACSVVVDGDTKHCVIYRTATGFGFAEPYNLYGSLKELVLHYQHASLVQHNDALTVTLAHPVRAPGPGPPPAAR
Sequence of Phosphatidylinositol 4,5-bisphosphate 3-kinase catalytic subunit gamma isoform (P48736 whole entry, canonical isoform): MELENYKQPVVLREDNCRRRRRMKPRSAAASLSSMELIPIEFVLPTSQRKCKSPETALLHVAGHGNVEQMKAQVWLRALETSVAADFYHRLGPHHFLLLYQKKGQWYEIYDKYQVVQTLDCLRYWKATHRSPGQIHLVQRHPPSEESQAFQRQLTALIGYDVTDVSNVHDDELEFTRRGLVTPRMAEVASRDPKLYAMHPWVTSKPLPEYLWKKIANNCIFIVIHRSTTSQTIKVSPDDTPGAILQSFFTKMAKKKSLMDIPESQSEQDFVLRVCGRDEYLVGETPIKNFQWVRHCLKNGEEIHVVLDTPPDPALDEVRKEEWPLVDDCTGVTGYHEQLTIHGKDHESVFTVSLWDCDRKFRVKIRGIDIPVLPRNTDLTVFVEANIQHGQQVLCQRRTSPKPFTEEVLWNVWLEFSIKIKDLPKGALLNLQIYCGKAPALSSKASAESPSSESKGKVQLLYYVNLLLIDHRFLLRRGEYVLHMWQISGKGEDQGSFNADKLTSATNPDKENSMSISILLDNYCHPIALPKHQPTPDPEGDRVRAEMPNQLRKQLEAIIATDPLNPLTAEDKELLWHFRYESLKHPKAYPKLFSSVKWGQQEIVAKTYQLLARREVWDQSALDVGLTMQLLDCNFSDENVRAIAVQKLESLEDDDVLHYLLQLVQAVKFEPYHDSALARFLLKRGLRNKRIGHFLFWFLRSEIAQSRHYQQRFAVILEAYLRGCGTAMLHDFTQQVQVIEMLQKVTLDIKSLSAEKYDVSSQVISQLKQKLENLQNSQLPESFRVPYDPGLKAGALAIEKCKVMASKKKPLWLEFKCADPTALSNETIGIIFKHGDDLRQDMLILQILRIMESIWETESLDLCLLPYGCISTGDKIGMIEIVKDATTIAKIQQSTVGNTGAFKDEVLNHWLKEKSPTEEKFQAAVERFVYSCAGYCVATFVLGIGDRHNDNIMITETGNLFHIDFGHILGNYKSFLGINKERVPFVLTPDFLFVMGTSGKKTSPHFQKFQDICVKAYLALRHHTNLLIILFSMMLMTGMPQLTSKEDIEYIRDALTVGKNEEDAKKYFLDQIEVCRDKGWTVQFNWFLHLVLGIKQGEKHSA

Row | IC50 [2] | IC50 [3] | Compound | IC50 [1] | other results
1 | < 100 nM |  | C[C@@H]1COCCN1C1CN(c2cnc3ccc(-c4ccc5oc(N)nc5c4)nc3n2)C1 |  | 
2 |  | < 100 nM | C[C@@H](N)C(=O)N1CCN(c2cnc3ccc(-c4ccc5oc(N)nc5c4)nc3n2)CC1 |  | 
3 |  | < 10000 nM | CC(C)(N)C(=O)N1CCN(c2cnc3ccc(-c4ccc5oc(N)nc5c4)nc3n2)CC1 |  | 

The next lines start with the molecule.

Row | Compound | IC50 [2] | IC50 [3] | IC50 [1] | other results
4 | Nc1nc2cc(-c3ccc4ncn(-c5ccccc5)c4c3)ccc2o1 |  |  | < 1000 nM | 
5 | Nc1nc2cc(-c3ccc4ncc(N5CCN(C(=O)C6CCCN6)CC5)nc4c3)ccc2o1 (stereo not drawn) | < 100 nM | < 100 nM |  | 
6 | Nc1nc2cc(-c3ccc4ncc(C(=O)N5CCC(N6CCC(F)(F)C6)C5)n4c3)ccc2o1 (stereo not drawn) |  |  | < 10000 nM | IC50 [4]: < 10000 nM
